Format in all cases: cell-based
In assay [1] the test system is SUIT 2.28. The experiment in a line: Annexin V apoptosis assay, SUIT 2.28. The conditions noted are these: 1× and 4 × IC50. How it is done: In order to investigate the apoptotic properties of the compounds 1b and 1g, the Annexin V apoptosis assay was performed. Annexins are calcium‐dependent phospholipid binding proteins, which are able to bind to phosphatidylserine (PS). The externalization of PS residues on the outer membrane of apoptotic cells can be detected by Annexin V.
For this assay, cells were seeded in a 96‐well plate at a concentration of 13.5 × 10^3 and 4.5 × 10^3 /well respectively for the 24 and 72 h experiments. The next day cells were treated with compounds 1b and 1g at 1 × IC50 and 4 × IC50 concentrations. The apoptosis assay was performed 24 and 72 h post‐treatment following the BD Pharmingen FITC Annexin V Apoptosis Detection Kit I (BD Biosciences, 556,547). The supernatant was aspirated, and cells were washed with phosphate‐buffered saline (PBS). Cells were consequently treated with binding buffer BBA + Annexin V (1:100) and were incubated in the dark at RT for 10 min. The supernatant was removed, and the cells were washed with BBA (1:10). Cells were then incubated with BBA + PI (1:100) and were immediately read with the spectrophotometer at ex. 485/ em. 535. Two different programs were used to read the Annexin V and the PI absorbance. Lastly, 100 µL of PBS were added to each well before being fixed with TCA. This was followed by the SRB assay to standardize fluorescence data according to cell count. Data were exported into GraphPad Prism 10 for statistical analysis.

In assay [2] the test system is PSC. Description: SRB chemosensitivity assay, pancreatic stellate cells (PSC). Particulars: Fibroblast, read-out: IC50 PSC. How it is done:
Three lines of immortalized PDAC cells were selected as representative phenotypes: mesenchymal (PATU‐T), quasimesenchymal (PANC‐1), and an epithelial clone of SUIT 2 cells (SUIT 2.28). Cells were cultured in noncoated T‐75 and T‐25 flasks under adherent conditions, using 1× DMEM (Gibco, 41,966,029) for PATU‐T and RPMI (Gibco, 21,875,034) for SUIT 2.28 and PANC‐1, both supplemented with 10% NBCS and 1% P/S. Additional employed models were the PDAC3 cells, a primary cell culture, the PSCs, which were immortalized healthy pancreatic cells, and the PATU‐T‐GR, which was a gemcitabine resistant model of PATU‐T. PDAC3 and PSCs were cultivated using complete RPMI medium, while PATU‐T‐GR required complete DMEM medium. For seeding, cells were detached with Trypsin‐EDTA (0.05%) (GibcoTM, 25,300–096) and were consequently counted using the Automated Cell Counter (Luna‐II, Westburg). Cells were then plated on 96‐ or 6‐well plates depending on the planned experiment.
The Sulforhodamine B (SRB) chemosensitivity assay was used to measure cytotoxicity and cell proliferation post drug treatment. At day 0, 3–6 × 10^3 cells were seeded in a 96‐well plate, depending on the cell line. At day 1, cells were attached and ready to be treated. For the calculation of the IC50, drug dilutions for the compounds 1b, 1c, 1d, 1e, 1g, 1hr, 1i, 1j, and LDC4297 (MedChemExpress, HY‐12,653) were prepared in dilution trays and eight different concentrations were included. These were added in triplicates to the cells, which were then incubated for […] at 37 °C in 5% CO2. During day 1, the control plate was fixed with 50% Trichloroacetic acid (TCA), as intended to be the baseline plate used for the normalization of the data. 72 h post‐treatment, the cells were fixed with TCA, and placed at 4 °C for about 2 h. […] Lastly, the absorbance was measured at 492 nm with a spectrophotometer (Synergy HT, BioTek). The absorbance data obtained were normalized to the day 1 control, and the percentage of cell growth in relation to the control was calculated using the following formula. […]
(In general: In SRB staining, fixed cells bind dye roughly in proportion to their protein.)

The subject of assay [3] is Bax/Bcl‐2. Description: Bax/Bcl‐2 ratio by RT‐PCR, PDAC3 cells. How it is done:
In order to understand modulation of downstream genes of CDK7, gene expression analysis by qPCR was performed in all cell lines. Cells (5 × 10^5/well) were seeded in 6‐well plates and treated with the compounds 1b and 1g at 1× and 4 × IC50 concentrations. Cell lysates were collected 24 h post‐treatment using 300 µL of TRIzol Reagent (Ambion, 15,596,018) per well. Total RNA was extracted by mixing 60 µL of chloroform to the samples, incubating for 3 min and centrifuging at 12,000 rcf for 15 min at 4 °C. The upper aqueous phase containing RNA was transferred to a new Eppendorf and mixed with 120 µL of cold isopropanol in order to allow the RNA to precipitate. Samples were incubated at RT for 10 min and were then centrifuged at 12,000 rcf for 10 min at 4 °C. The isopropanol was carefully removed, and the pellet was washed twice with 70% ETOH. Pellets were left to air dry and consequently resuspended in RNAse‐free water. Samples were left agitation on a thermomixer at 55 °C for 10 min at 600 rpm and were then quantified through NanoDrop technology (Thermo Scientific, NanoDrop One/One^c). RNA samples were stored at −80 °C.
In order to perform cDNA synthesis, the First Strand cDNA synthesis kit (Thermo Scientific, K1612) was used. The previously isolated RNA was mixed with 1 µL of oligo dT18 primer into a pcr tube. Nuclease free water was added to reach a final volume of 11 µL. Samples were centrifuged at 1200 rcf for 5 min and were then placed on a thermomixer at 65 °C for a few minutes. A master mix was prepared, including 4 µL of 5× reaction buffer, 1 µL of ribolock RNAse inhibitor, 2 µL of dntp mix (10 mM), and 2 µL of M‐mulv reverse transcriptase for each sample. In total 9 µL of master mix were added to each vial. Samples were centrifuged again and were finally synthesized, following a cycle of 60 min at 37 °C and 5 min at 70 °C. cDNA was now finally synthesized and could be stored at −20 °C. RT‐PCRs reactions were performed using SYBR Green (Bio‐Rad, 1,725,271) (5 µL per sample), primer mix (0.3 µM) (2 µL per sample), and cDNA (10 ng µL^− ^1) (3 µL per sample). […] RT‐PCR assays were carried out in a GeneAmp 5700 Sequence Detection System programmed to hold at 50 °C for 30 min, to hold at 95 °C for 10 min, and to complete 45 cycles of 95 °C for […] and 50 °C for 1 min. The genes that were investigated are shown in Table 5 , with their respective forward and reverse primer sequences.

Where two headings read alike, the source gives them in different places.

The term IC50 denotes the midpoint of a concentration-inhibition curve. Regarding `Nc1ncnc2cc(-c3c[nH]c4ccc(Br)cc34)nn12` [Compound 1b, 7‐(5‐Bromo‐1H‐indol‐3‐yl)pyrazolo[1,5‐a][1,3,5]triazin‐4‐amine], the apoptotic index entry is “below 1.5” in assay [1] (SUIT 2.28, 24 h) and “higher apoptotic index” in assay [1] (SUIT 2.28, 72 h). Moreover, the IC50 in assay [2] (SRB, nontumorous immortalized pancreatic fibroblasts, average ± SEM, triplicate) amounted to 6.6 ± 0.7 µM. Also, the “Bax/Bcl‐2 ratio PDAC3” value was found to be 0.44 in assay [3] (1 × IC50, 24 h after treatment) and 0.01 in assay [3] (4 × IC50, 24 h after treatment).

Regarding `Cn1cc(-c2cc3ncnc(N)n3n2)c2cc(Br)ccc21` [Compound 1g, 7‐(5‐Bromo‐1‐methyl‐1H‐indol‐3‐yl)pyrazolo[1,5‐a][1,3,5]triazin‐4‐amine], the apoptotic index entry in assay [1] (SUIT 2.28, 24 h) is “below 1.5”; in assay [1] (SUIT 2.28, 72 h) it was “higher apoptotic index”. Moreover, the IC50 in assay [2] is 5.3 ± 1.1 µM. The “Bax/Bcl‐2 ratio PDAC3” value is reported as 0.36 in assay [3] (1 × IC50, 24 h after treatment) and 0.38 in assay [3] (4 × IC50, 24 h after treatment).

These data come from publication PMC12503906, “Novel Pyrazolo [1,5‐a]−1,3,5‐Triazine Derivatives as CDK7 Inhibitors: Synthesis and Biological Insights in Pancreatic Ductal Adenocarcinoma Models” (Chemmedchem, 2025).
